In US8802818B2, “Prostaglandin-F2 alpha receptor modulators and uses thereof” (priority 2011, dated 2014):
Square brackets hold non-standard residues; d marks the D form. Peptide text beside a SMILES is read from it. * marks the point of attachment. 3Pal = N[C@@H](Cc1cccnc1)C(=O)O; β3hF = N[C@H](CC(=O)O)Cc1ccccc1; PhAc = O=C(Cc1ccccc1)*; azaGly = NNC(=O)O

What was measured:
[1] = system: SW480, HT29, Caco-2 and HTC116 cells; assay: Effect of PGF2α and PGE2 on colorectal cancer cell migration (collagen-coated Boyden chamber); format: cell-based, human; conditions: for migration of colorectal adenocarcinoma cell lines on stimulation: mediator 1 μM, 16 h, SW480, HT29, Caco-2, HTC116
Procedure: SW480 (p53 mut, K-Ras mut, APC mut), HT29 (p53 mut, K-Ras WT, APC mut), Caco-2 (p53 mut, K-Ras WT, APC mut), and HTC116 ([…], K-Ras mut, APC mut) cells were re-seeded into Boyden chambers coated with collagen, stimulated or not with FBS (10%), PGF2α (1 μM) or PGE2 (1 μM). Migration/invation was assessed after 16 h. Results are presented as mean±SEM of 3 independent experiments. *p<0.05, **p<0.01, ***p<0.001 compared to non-stimulated (ns) conditions;

PGF2α receptor (FP) [2] = target: T1, PGF2α receptor (FP) (Homo sapiens, UniProt P43088); assay: Cell ruffling in FP expressing HEK293 cells; conditions: 30 min; for inhibition of FP-induced (PGF2α-mediated) cell ruffling: pretreated 1 μM, then PGF2α 1 μM
Description: Nine fields (50-75 cells/field) per cover slip were quantified to assess circular cellular ruffling.

[3] = system: PGF2α-induced myometrial contractions; assay: Ex vivo myometrial contraction assay; parameters: species or system mice; conditions: mouse myometrial strips; compound given 15 min before PGF2α
Procedure: FIGS. 7A and 7B show the effects of PDC113.824 and azapeptides 5-9 on mean tension in myometrial preparations induced by PGF2α. At the beginning of each experiment, mean tension of spontaneous myometrial contraction was considered as the basal response. […] Values as mean±SEM of 3-5 experiments for each compound; p<0.05 compared to all values without asterisks.
Ex vivo myometrial contraction assays were performed as previously described^24. Briefly, uteri from mice were obtained from animals immediately after delivery.

SW480 cells = assay: Migration/invasion of SW480 cells in collagen-coated Boyden chambers; format: cell-based, human; conditions: 1 μM, 30 min pre-treatment, 16 h; for PGF2α-induced migration of SW480 cells: then 1 μM PGF2α
Procedure: SW480 cells were re-seeded into collagen-coated Boyden chambers, pretreated with PDC (1 μM, 30 min.), and stimulated or not with 1 μM PGF2α and PGE2 (use to show specificity of analogs for FP). Migration/invasion was assessed after 16 h.
Migration/invasion was assessed after 16 h.

PGF2α receptor (FP) [4] = target: T1, PGF2α receptor (FP); assay: ERK1/2 MAP kinase activation in HEK293 cells stably transfected with HA-FP (western blot); format: cell-based; parameters: expressed in transfected cells; host or cells: HEK293; conditions: 1 μM azapeptide 30 min pre-treatment, then PGF2α 0.1 μM or 1 μM for 5 min
Procedure: PGF2αreceptor (FP) expressing cells were serum-starved and pre-treated with 1 μM azapeptides (6-9) for 30 min and then stimulated with 0.1 μM (A) or 1 μM (B) PGF2α for 5 min as described.^24 Blots were quantified by densitometry and plotted compared to the non-stimulated (NS) condition. Results are representative of five independent experiments;
PGF2α was obtained from Cayman. Mouse monoclonal anti-p-ERK and rabbit polyclonal anti-total ERK antibodies were from Cell Signaling. HEK293 cells stably transfected with HA-FP (HA-FP cells)^24 were employed to measure activation of MAP kinase by PGF2α using conventional western blot methods. Briefly, HA-FP cells in 6-well plates were starved for 30 min and pre-treated with 1 μM of an azapeptide (6-9) for 30 min, and then challenged with PGF2α (0.1 μM or 1 μM) for 5 min. Cells were lysed in Laemmli buffer 2× (250 mM Tris-HCl pH 6.8, 2% SDS, 10% Glycerol, 0.01% Bromophenol blue). Lysates were electrophoresed on a 10% SDS-PAGE gels, transferred to nitrocellulose membranes, and probed using mouse anti-p-ERK1/2 and rabbit anti-total-ERK1/2 antibodies. Blots were quantified by densitometry and statistical tests were performed as described.^24

T1 sequence (P43088 whole entry, species assumed): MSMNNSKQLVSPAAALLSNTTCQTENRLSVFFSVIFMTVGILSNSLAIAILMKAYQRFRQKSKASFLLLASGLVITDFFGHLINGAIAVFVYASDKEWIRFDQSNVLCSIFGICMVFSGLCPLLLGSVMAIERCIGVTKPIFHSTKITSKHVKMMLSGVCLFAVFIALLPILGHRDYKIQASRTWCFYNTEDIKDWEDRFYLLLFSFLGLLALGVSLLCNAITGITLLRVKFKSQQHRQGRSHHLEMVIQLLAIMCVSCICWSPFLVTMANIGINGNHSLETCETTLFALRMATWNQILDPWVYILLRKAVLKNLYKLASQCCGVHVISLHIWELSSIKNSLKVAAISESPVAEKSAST

SMILES: CCCCC[C@H](O)/C=C/[C@H]1[C@H](O)CC(=O)[C@@H]1C/C=C\CCCC(=O)O [PGE2]
- migration of colorectal adenocarcinoma cell lines on stimulation [1]: enhanced migration of the four (4) cell lines examined

SMILES: O=C(O)C[C@H](Cc1ccccc1)NC(=O)[C@H](Cc1cccnc1)NC(=O)[C@@H]1CCCN1C(=O)N(Cc1ccccc1)NC(=O)Cc1ccccc1 [Compound 7]
- inhibition of FP-induced (PGF2α-mediated) cell ruffling (PGF2α receptor (FP) [2]): as effective as PDC113.824 in inhibiting FP-induced cell ruffling
- reduction of PGF2α-induced myometrial contractions (mean tension) [3]: active
- PGF2α-induced migration of SW480 cells (SW480 cells): significantly impaired the ability of SW480 cells to migrate
- PGF2α-mediated ERK1/2 signaling relative to cells stimulated with PGF2α alone (PGF2α receptor (FP) [4]): significantly potentiated

SMILES: O=C(O)C[C@H](Cc1ccccc1)NC(=O)[C@H](Cc1cccnc1)NC(=O)[C@@H]1CCCN1C(=O)NNC(=O)Cc1ccccc1 [Compound 5] (PhAc-[azaGly]P[3Pal][β3hF]-OH)
- inhibition of FP-induced (PGF2α-mediated) cell ruffling (PGF2α receptor (FP) [2]): as effective as PDC113.824 in inhibiting FP-induced cell ruffling
- PGF2α-induced migration of SW480 cells (SW480 cells): significantly impaired the ability of SW480 cells to migrate

SMILES: O=C(O)C[C@H](Cc1ccccc1)NC(=O)[C@H](Cc1cccnc1)NC(=O)[C@@H]1CC[C@@H]2CC[C@H](NC(=O)Cc3ccccc3)C(=O)N21 [PDC113.824, Phenylacetyl-(3S,6S,9S)-I^2aa-(2S)-(3-pyridyl)alaninyl-(3S)-β-homophenylalanine, reference compound]
- inhibition of FP-induced (PGF2α-mediated) cell ruffling (PGF2α receptor (FP) [2]): inhibiting FP-induced cell ruffling
- reduction of PGF2α-induced myometrial contractions (mean tension) [3]: active
- PGE2-induced migration of SW480 cells (SW480 cells; then 1 μM PGE2): without affecting migration induced by PGE2
- PGF2α-induced migration of SW480 cells (SW480 cells): significantly blocked PGF2α-induced migration
- migration of SW480 cells in the absence of PGF2α and PGE2 (SW480 cells): did not affect the migration of SW480 cells

SMILES: C#CCN(NC(=O)Cc1ccccc1)C(=O)N1CCC[C@H]1C(=O)N[C@@H](Cc1cccnc1)C(=O)N[C@H](CC(=O)O)Cc1ccccc1 [Compound 6, Phenylacetyl-aza-propargylglycinyl-(2S)-prolyl-(2S)-3-(pyridyl)-alaninyl-(3S)-β-homophenylalanine]
- inhibition of FP-induced (PGF2α-mediated) cell ruffling (PGF2α receptor (FP) [2]): slightly reduced PGF2α-mediated cell ruffling
- PGF2α-induced migration of SW480 cells (SW480 cells): had an effect on cell migration but was not as effective as the others
- PGF2α-mediated ERK1/2 signaling relative to cells stimulated with PGF2α alone (PGF2α receptor (FP) [4]): significantly potentiated

SMILES: CCCCC[C@H](O)/C=C/[C@@H]1[C@@H](C/C=C\CCCC(=O)O)[C@@H](O)C[C@H]1O [PGF2α]
- membrane ruffle formation, share of FP cells (PGF2α receptor (FP) [2]; PGF2α 1 μM): 65.7 ± 1.6%
- potency of PGF2α on migration compared with PGE2 ([1]; SW480 and HT29 cells): as potent as PGE2
- migration of colorectal adenocarcinoma cell lines on stimulation [1]: enhanced migration of the four (4) cell lines examined

SMILES: CN(NC(=O)Cc1ccccc1)C(=O)N1CCC[C@H]1C(=O)N[C@@H](Cc1cccnc1)C(=O)N[C@H](CC(=O)O)Cc1ccccc1 [Compound 9]
- inhibition of FP-induced (PGF2α-mediated) cell ruffling (PGF2α receptor (FP) [2]): slightly reduced PGF2α-mediated cell ruffling
- PGF2α-induced migration of SW480 cells (SW480 cells): relatively lower effect
- PGF2α-mediated ERK1/2 signaling relative to cells stimulated with PGF2α alone (PGF2α receptor (FP) [4]): hindered

SMILES: C=CCN(NC(=O)Cc1ccccc1)C(=O)N1CCC[C@H]1C(=O)N[C@@H](Cc1cccnc1)C(=O)N[C@H](CC(=O)O)Cc1ccccc1 [Compound 8]
- inhibition of FP-induced (PGF2α-mediated) cell ruffling (PGF2α receptor (FP) [2]): as effective as PDC113.824 in inhibiting FP-induced cell ruffling
- PGF2α-induced migration of SW480 cells (SW480 cells): significantly impaired the ability of SW480 cells to migrate
- PGF2α-mediated ERK1/2 signaling relative to cells stimulated with PGF2α alone (PGF2α receptor (FP) [4]): hindered
